Experimental data reported in patent publication US12077503B2, “Substituted cyclic amides and their use as herbicides” (FMC CORPORATION, priority 2015, dated 2024).

Assays:
Format in all cases: in vivo
corn (Zea mays) = assay: Test A postemergence; details: postemergence, 0 to 100 scale (0 no effect, 100 complete control)
Method in brief: (§1)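 Seeds sprayed preemergence with a directed soil spray, or plants at 2 to 10 cm height and one- to two-leaf stage sprayed postemergence, with test chemicals in a non-phytotoxic solvent mixture containing surfactant, in loam soil–sand blend. Injury rated visually against untreated controls after about 10 d in greenhouse, 0 (no effect) to 100 (complete control).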

[1] = tested on: giant foxtail (Setaria faberii); assay: Test A postemergence; details: postemergence, 0 to 100 scale (0 no effect, 100 complete control)
Method in brief: as §1

[2] = tested on: Galium (catchweed bedstraw, Galium aparine); assay: Test A postemergence; details: postemergence, 0 to 100 scale (0 no effect, 100 complete control)
Method in brief: as §1

[3] = tested on: barnyardgrass (Echinochloa crus-galli); assay: Test A postemergence; details: postemergence, 0 to 100 scale (0 no effect, 100 complete control)
Method in brief: as §1

[4] = tested on: ryegrass, Italian (Italian ryegrass, Lolium multiflorum); assay: Test A postemergence; details: postemergence, 0 to 100 scale (0 no effect, 100 complete control)
Method in brief: as §1

Kochia (Kochia scoparia) [5] = assay: Test A postemergence; details: postemergence, 0 to 100 scale (0 no effect, 100 complete control)
Method in brief: as §1

[6] = tested on: blackgrass (Alopecurus myosuroides); assay: Test A postemergence; details: postemergence, 0 to 100 scale (0 no effect, 100 complete control)
Method in brief: as §1

[7] = tested on: pigweed (Amaranthus retroflexus); assay: Test A postemergence; details: postemergence, 0 to 100 scale (0 no effect, 100 complete control)
Method in brief: as §1

[8] = tested on: wheat (Triticum aestivum); assay: Test A postemergence; details: postemergence, 0 to 100 scale (0 no effect, 100 complete control)
Method in brief: as §1

[9] = tested on: ragweed (common ragweed, Ambrosia elatior); assay: Test A postemergence; details: postemergence, 0 to 100 scale (0 no effect, 100 complete control)
Method in brief: as §1

[10] = tested on: ducksalad (Heteranthera limosa); assay: Test B flooded paddy test; details: Flood, 250 g ai/ha; 0 to 100 scale where 0 is no effect and 100 is complete control; 13 to 15 d
Method in brief: (§2)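 2-leaf plants; pots flooded 3 cm over soil; cpd added to paddy water; depth held; greenhouse 13–15 d; visual rating vs controls, 0 = no effect, 100 = complete control.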

[11] = tested on: barnyardgrass (Echinochloa crus-galli); assay: Test B flooded paddy test; details: Flood, 250 g ai/ha; 0 to 100 scale where 0 is no effect and 100 is complete control; 13 to 15 d
Method in brief: as §2

[12] = tested on: sedge, umbrella (small-flower umbrella sedge, Cyperus difformis); assay: Test B flooded paddy test; details: Flood, 250 g ai/ha; 0 to 100 scale where 0 is no effect and 100 is complete control; 13 to 15 d
Method in brief: as §2

rice (Oryra sativa) = assay: Test B flooded paddy test; details: Flood, 250 g ai/ha; 0 to 100 scale where 0 is no effect and 100 is complete control; 13 to 15 d
Method in brief: as §2

[13] = tested on: giant foxtail (Setaria faberii); assay: Test A preemergence
Method in brief: as §1

[14] = tested on: barnyardgrass (Echinochloa crus-galli); assay: Test A preemergence
Method in brief: as §1

[15] = tested on: ryegrass, Italian (Italian ryegrass, Lolium multiflorum); assay: Test A preemergence; details: preemergence
Method in brief: as §1

Kochia (Kochia scoparia) [16] = assay: Test A preemergence
Method in brief: as §1

[17] = tested on: pigweed (Amaranthus retroflexus); assay: Test A preemergence; details: preemergence
[18] = tested on: ragweed (common ragweed, Ambrosia elatior); assay: Test A preemergence; details: preemergence
Method in brief: as §1

[19] = 125 g ai/ha, visual injury after approximately 10 d
[20] = 500 g ai/ha, visual injury, approx. 10 d
[21] = 125 g ai/ha, visual rating after approx. 10 d
[22] = 125 g ai/ha, Preemergence, visual injury after approximately 10 d, 0 to 100 scale where 0 is no effect and 100 is complete control
[23] = 500 g ai/ha, preemergence, 0 to 100 scale, 0 = no effect, 100 = complete control
[24] = 125 g ai/ha, visual rating after approx. 10 d, 0 to 100 scale where 0 is no effect and 100 is complete control
[25] = 500 g ai/ha, 0 to 100 scale, 0 = no effect, 100 = complete control

## O=C(Nc1ccccc1F)C1C(=O)N(CC2CC2)CC1c1cccc(C(F)(F)F)c1 (stereo not drawn) [Compound 682]
Corn (Zea mays); [19]
  Plant response rating, Corn: 0
Corn (Zea mays); [20]
  Plant response rating, Corn: 0
[1]; [19]
  Plant response rating, Foxtail, Giant: 20
[1]; [20]
  Plant response rating, Foxtail, Giant: 80
[2]; [19]
  Plant response rating, Galium: 0
[2]; [20]
  Plant response rating, Galium: 0
[3]; [21]
  Plant response rating, Barnyardgrass: 0
[3]; [20]
  Plant response rating, Barnyardgrass: 20
[4]; [19]
  Plant response rating, Ryegrass, Italian: 0
[4]; [20]
  Plant response rating, Ryegrass, Italian: 0
Kochia (Kochia scoparia) [5]; [19]
  Plant response rating, Kochia: 0
Kochia (Kochia scoparia) [5]; [20]
  Plant response rating, Kochia: 0
[6]; [21]
  Plant response rating, Blackgrass: 0
[6]; [20]
  Plant response rating, Blackgrass: 0
[7]; [19]
  Plant response rating, Pigweed: 0
[7]; [20]
  Plant response rating, Pigweed: 0
[8]; [19]
  Plant response rating, Wheat: 0
[8]; [20]
  Plant response rating, Wheat: 20
[9]; [19]
  Plant response rating, Ragweed: 0
[9]; [20]
  Plant response rating, Ragweed: 0
[10]
  Plant response rating, Ducksalad: 0
[11]
  Plant response rating, Barnyardgrass: 0
[12]
  Plant response rating, Sedge, Umbrella: 0
Rice (Oryra sativa)
  Plant response rating, Rice: 0
[13]; [22]
  Plant response rating, Foxtail, Giant: 90
[13]; [23]
  Plant response rating, Foxtail, Giant: 90
[14]; [22]
  Plant response rating, Barnyardgrass: 0
[14]; [23]
  Plant response rating, Barnyardgrass: 0
[15]; [24]
  Plant response rating, Ryegrass, Italian: 20
[15]; [25]
  Plant response rating, Ryegrass, Italian: 30
Kochia (Kochia scoparia) [16]; [22]
  Plant response rating, Kochia: 0
Kochia (Kochia scoparia) [16]; [23]
  Plant response rating, Kochia: 0
[17]; [24]
  Plant response rating, Pigweed: 0
[17]; [25]
  Plant response rating, Pigweed: 0
[18]; [24]
  Plant response rating, Ragweed: 0
[18]; [25]
  Plant response rating, Ragweed: 0
